Results from patent US20240150339A1, “Compounds and Their Use as PDE4 Activators” (Mironid Limited, priority 2021, published 2024).
Structures can show the parent of a compound that is named as a salt.

How the values were obtained:
m-IMCD3 cells = assay: Inhibition of PGE2-stimulated in vitro cyst formation in 3D culture of m-IMCD3 cells; type: cell-based, mouse; settings: Mus musculus, mIMCD3, 144 h; 10 μM test compound; mean cyst area (%) compared to 100% for (DMSO + PGE2) and 0% for DMSO control; 100 nM PGE2; 6 days; read-out: % Cyst area after incubation with 10 μM test compound
In short: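 Mouse m-IMCD3 cells grown in 3D collagen I/Matrigel gels. From 18-24 h after plating, compound (0.1% DMSO) plus 100 nM PGE2 were added and replenished at 2-3 days. After 6 days, imaging gave mean cyst area, scaled to 100% for DMSO+PGE2 and 0% for DMSO alone.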

MDCK cells = assay: Inhibition of PGE2-stimulated in vitro cyst formation in 3D culture of MDCK cells; type: cell-based; settings: total cyst area (%) compared to 100% for (DMSO + PGE2) and 0% for DMSO control, 300 nM PGE2
Experimental: HEK 293 and MDCK cells (Public Health England, Cell Culture Collections) were maintained in Dulbecco's Modified Eagle's Medium (DMEM) supplemented with 10% (v/v) fetal bovine serum (FBS) (Seralab), 2 mM L-glutamine and 100 U/ml penicillin streptomycin cocktail (ThermoFisher); termed complete media. Clonal HEK 293 cell lines were maintained in complete media supplemented with 0.6 mg/mL G418 (Enzo Life Sciences). Mouse inner medullary collecting duct (m-IMCD3) cells [American Type Culture Collection (ATCC)] were maintained in media consisting of DMEM/Hams F-12 50/50 Mix (DMEM F12; Corning) supplemented with penicillin streptomycin cocktail (100 U/ml) and FBS (10% v/v) (DMEM F12-10% FBS).
In this study, the well-established three-dimensional (3D) MDCK cell model is used to investigate the effects of PDE4 long form activators on the formation of kidney cysts and evaluate their potential in the treatment of polycystic kidney diseases. 3D cysts are generated based on the method of Mao et al. (Mao, Z., Streets, A. J., Ong, A. C. M. Am. J. Physiol. Renal Physiol. 300 (6): F1375-F1384, 2011), with some modifications.
The assay is conducted in the wells of a 96-well plate culture dish using a total volume of 130 μl of collagen suspension in growth media for each matrix plug per individual well. Rat Collagen I (Fisher Scientific) is prepared on ice by neutralising with 1M NaOH and diluting with a 2×volume of DMEM-2% FBS. 30 μl of collagen/Media mix is added into the well of a 96 well plate and the collagen is set to a gel by incubating at 37° C. for at least 15 minutes. A second layer of 100 μl collagen/Matrigel suspension containing MDCK cells (1.0×10^4 MDCK cells per well) is then layered over the first layer and the collagen/cell mix again set to a gel by incubating at 37° C. 100 μl DMEM growth media is added and cells are incubated at 37° C. for 24 hours. 24 hours after cell seeding, DMEM-2% FBS is added along with the test compound indicated in the presence of 300 nM prostaglandin E2 (PGE2) (Sigma Aldrich) in quadruplicate wells per condition. Media, together with the test compound and PGE2 are replenished every 3 days for 10-15 days.
After 10-15 days of culture z stack images of the wells are captured using the Nikon Eclipse Ti2-E microscope. Nikon General Analysis software is used to measure the following parameters in each well: the mean cyst area, the number of cysts, and the total cyst area.
PDE4 long form activators inhibited in vitro cyst formation in MDCK cells. Data are shown in Table 6 as total cyst area (%), compared to 100% for (DMSO+PGE2) and 0% for DMSO control.

m-IMCD3 cell culture = assay: Reduction of cAMP levels in m-IMCD3 cell culture media (cAMP ELISA); type: cell-based, mouse; settings: compared to 100% for (DMSO + PGE2)
Description: Experiment 4a: Reduction of cAMP Levels in m-IMCD3 Cell Culture Treated with PDE4 Long Form Activators Activation of intracellular PDE4 long forms leads to a reduction of both intracellular cAMP and externalised cAMP (Omar et al., PNAS 116: 13320-13329, 2019). This reduction may be measured in the cell culture media supernatant of 3D cystic cell cultures, such as in the m-IMCD3 cell cyst suppression assay described in Experiment 4.
Following the completion of the m-IMCD3 cell cyst suppression assay, the cAMP levels in the assay media from individual assay wells was measured using a cAMP ELISA kit (Enzo Life Sciences) according to the manufacturer's instructions.
Treatment with PDE4 long form activators reduced cAMP levels in PGE2-stimulated m-IMCD3 cell culture.

PDE4B2 = target: T1, PDE4B2 (Homo sapiens, UniProt Q07343); assay: PDE assay, activity of full-length human PDE4B2 short form ([3H]cAMP radio-assay); type: biochemical; settings: 30 μM test compound; mean % increase in counts over basal activity
T1 construct: the full length human PDE4B2 short isoform; made in house; cytosol fraction of the lysate by analogy to PDE4D5
Description: Experiment 1: Measurement of Modulation of Enzyme Activity by PDE4 Long Form Activators of the Present Invention Using Full-Length Human PDE4 Isoforms: Long Forms PDE4D5, PDE4C3, PDE4B1 and Short Form PDE4B2
(Marchmont, R. J. and Houslay, M. D. Biochem. J. 187: 381-92, 1980)
For transient transfection of exogenous PDE4 long isoforms, HEK 293 cells were transfected with pcDNA3.1 or pDEST™ PDE4 expression vectors using Lipofectamine LTX/Plus reagent (Invitrogen) as outlined by the manufacturer.
Where stable cell lines were generated the clonal isolates were expanded to obtain cell lines that stably expressed the full-length human PDE4 long isoforms and the full length human PDE4B2 short isoform. These were called the HEK-PDE4D5, HEK-PDE4B1 and HEK-PDE4B2 cell lines, respectively.
HEK-PDE4D5 cells were seeded out in 100 mm plates and incubated at 37° C. in an atmosphere of 5% CO2, 95% air. Cell lysates were prepared using KHEM buffer [50 mM KCl, 10 mM EGTA, 50 mM HEPES (pH 7.2), 1.92 mM MgCl2].
To prepare the cell lysates, the 100 mm plates containing the cells were placed on ice and washed with ice-cold PBS (phosphate buffered saline, pH 7.4). KHEM buffer (500 μl) was added to the cells. Cells were then scraped off the plate and triturated using a needle (BD Microlance™ 0.8, 40 mm). The lysed cells were then centrifuged at 2000 rpm for 10 minutes to remove cell debris and the supernatant (cell lysate containing recombinant PDE4D5) was transferred to a fresh tube and kept on ice.
The cell lysate containing recombinant PDE4D5 was transferred into a centrifuge tube and placed into an ultracentrifuge (BECKMAN COULTER) and spun at high speed (100,000 g) for 30 minutes at 4° C. The cytosol fraction was then collected and its protein amount determined using a BCA protein assay.
PDE assays were performed in thin walled V-bottomed 96-well plates. The assays were performed at a final concentration of 10 mM Tris/5 mM MgCl2 μlus PDE4D5 cell lysate cytosol fraction, containing over-expressed PDE4D5, with and without test compound. The lysate/compound mix were incubated together for 15 min at room temperature on an orbital shaker prior to addition of [^3H] cAMP (final concentration 1 μM [^3H] cAMP; Perkin Elmer) to a final volume of 50 μl per reaction. The reactions were then incubated for 10 minutes at 30° C., terminated by heating for 2 min at 95° C. and allowed to cool. Snake venom (12.5 μl of 1 mg/ml; Crotalus atrox, Sigma) was then added and the plates were agitated and incubated for a further 15 minutes at 30° C. Dowex ion exchange resin (Sigma, chloride form, 200-400 mesh; 200 μl; prepared as a 1:1 Dowex: water stock, thoroughly re-suspended and diluted 2:1 with ethanol) was then added to each well and the plates incubated for 15 min at room temperature on an orbital shaker ensuring sufficient agitation for resin suspension (550 RPM). The reaction mixture was then transferred to a 96 well filter plate (Millipore; […] pore size) and filtered into a receiving 96-well plate to remove the dowex suspension. 30 μL of the filtered solution was then transferred to the wells of an Opti-plate (Perkin Elmer) 96 well assay plate and 120 μl of Microscint 40 scintillation fluid was added. The plate was then placed on an orbital shaker for 10 min at high speed (900 RPM) to mix the sample with scintillation fluid prior to quantitation using a plate based scintillation counter (Top-Count).
The % increase in counts in the presence of test compound at a particular concentration indicates the % increase in enzyme activity at that concentration.

PDE4D5 = target: T2, PDE4D5 (Homo sapiens, UniProt Q08499); assay: PDE assay, activation of full-length human PDE4D5 long form ([3H]cAMP radio-assay); type: biochemical; settings: 30 μM test compound; mean % increase in counts over basal activity
T2 construct: Using Full-Length Human PDE4 Isoforms: Long Forms PDE4D5, PDE4C3, PDE4B1 and Short Form PDE4B2; made in house; cytosol fraction of the cell lysate, not purified
In short: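 Cytosol (100,000 g) from HEK293 cells overexpressing full-length human PDE4 was preincubated with compound for 15 min at room temperature in 10 mM Tris/5 mM MgCl2. Reaction ran with 1 μM [3H]cAMP for 10 min at 30° C, then snake venom conversion, Dowex separation and scintillation counting; activity reported as % increase.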

T2 sequence (Q08499 1-745 isoform Q08499-6): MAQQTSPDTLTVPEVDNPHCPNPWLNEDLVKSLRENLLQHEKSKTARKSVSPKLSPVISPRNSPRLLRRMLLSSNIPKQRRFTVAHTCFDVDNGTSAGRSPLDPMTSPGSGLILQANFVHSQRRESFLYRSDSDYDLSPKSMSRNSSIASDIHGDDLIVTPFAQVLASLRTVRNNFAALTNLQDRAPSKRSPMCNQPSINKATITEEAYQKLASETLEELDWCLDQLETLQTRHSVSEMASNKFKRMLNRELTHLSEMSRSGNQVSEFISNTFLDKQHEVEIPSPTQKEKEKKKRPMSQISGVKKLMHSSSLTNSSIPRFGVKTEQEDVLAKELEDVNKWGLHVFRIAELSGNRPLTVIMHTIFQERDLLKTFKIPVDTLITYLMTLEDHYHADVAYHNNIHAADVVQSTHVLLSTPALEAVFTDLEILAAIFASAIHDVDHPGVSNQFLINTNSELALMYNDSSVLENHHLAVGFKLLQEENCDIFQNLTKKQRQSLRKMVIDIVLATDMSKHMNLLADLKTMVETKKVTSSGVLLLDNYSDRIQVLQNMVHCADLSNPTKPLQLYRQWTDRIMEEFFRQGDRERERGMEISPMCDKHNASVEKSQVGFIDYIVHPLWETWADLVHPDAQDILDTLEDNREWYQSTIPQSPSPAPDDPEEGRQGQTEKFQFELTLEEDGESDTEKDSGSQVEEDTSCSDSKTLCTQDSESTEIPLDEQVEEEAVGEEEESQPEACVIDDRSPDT
T1 sequence (Q07343 1-564 isoform Q07343-2): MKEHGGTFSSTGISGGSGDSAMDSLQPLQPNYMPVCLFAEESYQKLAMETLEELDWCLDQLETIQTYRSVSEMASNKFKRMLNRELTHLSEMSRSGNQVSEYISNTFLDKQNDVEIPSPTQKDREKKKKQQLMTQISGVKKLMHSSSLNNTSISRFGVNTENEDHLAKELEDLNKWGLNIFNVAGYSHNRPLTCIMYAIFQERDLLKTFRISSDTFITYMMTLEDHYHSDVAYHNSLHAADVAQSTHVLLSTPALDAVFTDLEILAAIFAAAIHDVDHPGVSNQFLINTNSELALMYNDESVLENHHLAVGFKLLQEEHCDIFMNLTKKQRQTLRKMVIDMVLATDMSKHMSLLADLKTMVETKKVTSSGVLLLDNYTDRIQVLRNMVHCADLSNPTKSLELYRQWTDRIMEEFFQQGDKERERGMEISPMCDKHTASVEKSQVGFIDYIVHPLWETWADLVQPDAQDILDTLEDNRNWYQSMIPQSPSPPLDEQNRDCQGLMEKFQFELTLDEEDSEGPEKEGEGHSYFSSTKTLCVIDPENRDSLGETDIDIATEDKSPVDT

% increase in PDE4B2 activity at 30 μM* (PDE4B2)	activation at 30 µM (PDE4D5)	SMILES	activity at 10 µM (m-IMCD3 cells)	% Cyst area after incubation with 1 μM test compound (MDCK cells)	other results
		O=C(N[C@H]1CCOc2ccccc21)c1ccc2nc(N3CCNCC3)sc2c1 [Example 83, (S)-N-(chroman-4-yl)-2-(piperazin-1-yl)benzo[d]thiazole-6-carboxamide hydrochloride]	6%	−1%	
		CN1CCC(c2nc3ccc(C(=O)NC4CCCC4)cc3s2)CC1 [Example 151, N-cyclopentyl-2-(1-methylpiperidin-4-yl)benzo[d]thiazole-6-carboxamide]	10%		cAMP level (% of PGE2-stimulated) after incubation with 10 μM test compound (m-IMCD3 cell culture): 54%
		O=C(NC1CCC(F)(F)CC1)c1ccc2nc(C3CCN(CCO)CC3)sc2c1 [Example 174, N-(4,4-difluorocyclohexyl)-2-(1-(2-hydroxyethyl)piperidin-4-yl)benzo[d]thiazole-6-carboxamide]			cAMP level (% of PGE2-stimulated) after incubation with 10 μM test compound (m-IMCD3 cell culture): 27%
9%	31%	CCN1CCC(c2nc3c(C)cc(C(=O)N[C@H]4CCOc5ccccc54)cc3s2)CC1 [Example 187, (S)-N-(chroman-4-yl)-2-(1-ethylpiperidin-4-yl)-4-methylbenzo[d]thiazole-6-carboxamide]			
−3%	30%	CCN1CCN(c2nc3c(C)cc(C(=O)N[C@H]4CCOc5ccccc54)cc3s2)CC1 [Example 212, (S)-N-(chroman-4-yl)-2-(4-ethylpiperazin-1-yl)-4-methylbenzo[d]thiazole-6-carboxamide]			
−2%	88%	CCN1CCN(c2nc3cc(C)c(C(=O)N[C@H]4CCOc5ccccc54)cc3s2)CC1 [Example 216, (S)-N-(chroman-4-yl)-2-(4-ethylpiperazin-1-yl)-5-methylbenzo[d]thiazole-6-carboxamide]	-5%		
0%	36%	CCN1CCN(c2nc3ccc(C(=O)N[C@H]4CCOc5ccccc54)c(C)c3s2)CC1 [Example 220, (S)-N-(chroman-4-yl)-2-(4-ethylpiperazin-1-yl)-7-methylbenzo[d]thiazole-6-carboxamide]			
		COc1c(C(=O)NC2CCCC2)ccc2nc(N3C4CCC3CNC4)sc12 [Example 236, 2-(3,8-diazabicyclo[3.2.1]octan-8-yl)-N-cyclopentyl-7-methoxybenzo[d]thiazole-6-carboxamide]		20%	
		CC(C)NC(=O)c1cc(C#N)c2nc(N3C4CCC3CNC4)sc2c1 [Example 238, 2-(3,8-diazabicyclo[3.2.1]octan-8-yl)-4-cyano-N-isopropylbenzo[d]thiazole-6-carboxamide]		24%	
		O=C(NC1CCC(F)(F)CC1)c1ccc2nc(N3C4CCC3CNC4)sc2c1 [Example 240, 2-(3,8-diazabicyclo[3.2.1]octan-8-yl)-N-(4,4-difluorocyclohexyl)-benzo[d]thiazole-6-carboxamide]	5%		cAMP level (% of PGE2-stimulated) after incubation with 10 μM test compound (m-IMCD3 cell culture): 41%
		O=C(NC1CCC(F)(F)CC1)c1ccc2nc(N3CC4CCC(C3)N4)sc2c1 [Example 245, 2-(3,8-diazabicyclo[3.2.1]octan-3-yl)-N-(4,4-difluorocyclohexyl)-benzo[d]thiazole-6-carboxamide]		4%	
		O=C(NC1CCC(F)(F)CC1)c1ccc2nc(N3CC4CCC(C3)N4CCO)sc2c1 [Example 247, N-(4,4-difluorocyclohexyl)-2-(8-(2-hydroxyethyl)-3,8-diazabicyclo[3.2.1]octan-3-yl)benzo[d]thiazole-6-carboxamide]		1%	
		CN1CCN(c2nc3ccc(C(=O)NC4CCCC4)cc3s2)CC12CC2 [Example 260, N-cyclopentyl-2-(4-methyl-4,7-diazaspiro[2.5]octan-7-yl)benzo[d]thiazole-6-carboxamide]		11%	

SMILES	% increase in PDE4B2 activity at 30 μM* (PDE4B2)	activation at 30 µM (PDE4D5)	activity at 10 µM (m-IMCD3 cells)	% Cyst area after incubation with 1 μM test compound (MDCK cells)	other results
CCN1CC2CCC(C1)N2c1nc2ccc(S(=O)(=O)NC3CCC(F)(F)CC3)cc2s1 [Example 290, N-(4,4-difluorocyclohexyl)-2-(3-ethyl-3,8-diazabicyclo[3.2.1]octan-8-yl)benzo[d]thiazole-6-sulfonamide]	11%	47%	16%		
